Where no end group is shown, it is not given here. [ ]: non-standard residue; d: D form. Aib = CC(C)(N)C(=O)O
How the values were obtained:
[1] = test system: CSN^ΔCSNAP complex; test: Peptide array screen of C-CSNAP peptides with rCSN^ΔCSNAP; format: binding; details: average of 5 experiments;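 also: Array-printed peptides incubated with 0.5 µM CSN^ΔCSNAP, bound complex detected by anti-CSN3 antibody plus HRP-linked secondary, spot intensity expressed relative to the parent reference peptide spot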
Protocol: Peptide array screen of modified C-CSNAP peptides. C-CSNAP peptide and its derivatives were printed on a microarray. The array was blocked and incubated with or without the CSN∆CSNAP complex and probed using an anti-CSN3 antibody and HRP-conjugated secondary antibody. To assess non-specific binding of the antibodies to the array, anti-CSN3 and anti-GAR-HRP were used without the addition of the COP9 signalosome complex (CSN). Signal intensity of each spot was measured and normalized to the intensity of the spot of C-CSNAP (A1). Measured values for each spot were averaged from six arrays and plotted with standard errors SEM.
(§1) Intensity values are normalized to the intensity of the 16AA C-CSNAP peptide (A1) on each array from three independent experiments in duplicates, and averages from the six replicates are calculated with SEM.
(§2) Optimization of C-CSNAP sequence for enhanced binding to recombinant CSN^ΔCSNAP was screened by printing the modified sequences of CSNAP or C-CSNAP (Phe to Trp, Asp to Glu, Ala screen, D-amino acid screen, N-α-methylation, and Aib incorporation on INTAVIS Celluspots array [2 × 384spots]). The array was blocked with 5% skim milk in TBS-0.5% Tween 20 (TBS-T) for 4 h at room temperature, washed three times in TBS-T, and then incubated with 0.5 μM CSN^ΔCSNAP in 5% milk–TBS-T. Bound CSN^ΔCSNAP was visualized by incubating with anti-CSN3 (ab79698) antibody (1:10,000, overnight) and goat-anti-rabbit-HRP secondary antibody (1:10,000, 1 h).

[2] = test system: recombinant CSN complex; test: Peptide array screen of C-CSNAP peptides with recombinant CSN (rCSN^WT); format: binding; details: for Average fold change, intensities as fold of C-CSNAP (A1): rCSN^WT on INTAVIS Celluspots array, anti-CSN3 and HRP secondary antibody, average of six replicates (three independent experiments in duplicates); for Average fold change: peptide array with rCSN, average of 3 experiments, left and right (n = 6), fold of C-CSNAP (A1); for intensities as fold of C-CSNAP (A1), Experiment #1 left / intensities as fold of C-CSNAP (A1), Experiment #1 right / intensities as fold of C-CSNAP (A1), Experiment #2 left / intensities as fold of C-CSNAP (A1), Experiment #2 right / intensities as fold of C-CSNAP (A1), Experiment #3 left / intensities as fold of C-CSNAP (A1), Experiment #3 right: rCSN^WT peptide array; for intensities as fold of C-CSNAP (A1), Experiment #1 left: replicate: Experiment #1, left array; for intensities as fold of C-CSNAP (A1), Experiment #1 right: replicate: Experiment #1, right array; for intensities as fold of C-CSNAP (A1), Experiment #2 left: replicate: Experiment #2, left array; for intensities as fold of C-CSNAP (A1), Experiment #2 right: replicate: Experiment #2, right array; for intensities as fold of C-CSNAP (A1), Experiment #3 left: replicate: Experiment #3, left array; for intensities as fold of C-CSNAP (A1), Experiment #3 right: replicate: Experiment #3, right array;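 as to all read-outs here: densitometric signal of CSN bound to each synthesized peptide spot, with an antibody-only array lacking CSN run to exclude non-specific binding, higher values meaning stronger binding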
Protocol: To generate an optimized C-CSNAP peptide, we used the peptide array methodology. The array was designed to screen for the optimal peptide length, sequence, and stability (Fig 3A). A recombinant CSN complex was expressed, purified, and screened for binding to the peptide array by using an anti-CSN3 antibody. To rule out non-specific binding of the probing antibody, a control experiment was carried out without the addition of the CSN complex (Fig 3A right panel).
C-CSNAP peptide and its derivatives were synthesized on a microarray. The array was blocked and incubated with or without the COP9 signalosome complex (CSN) and probed using an anti-CSN3 antibody and HRP-conjugated secondary antibody. To assess non-specific binding of the antibodies to the array, anti-CSN3 and anti-GAR–HRP were used without the addition of the CSN. Signal intensity of each spot was measured and normalized to the intensity of the spot of C-CSNAP (A1). Measured values for each spot were averaged from six arrays and plotted with SEM. […] (A) A representative image of the peptide array (left) and the background (right). (B) Elongation of the C-terminal 16 amino acids (green) with one residue at a time based on the full-length sequence. […] (F) Single D-amino acid substitution at various positions.
as §1, §2

[3] = peptide array, rCSN^ΔCSNAP, left and right spots
[4] = peptide array with rCSN^ΔCSNAP, left and right (n = 10), fold of C-CSNAP (A1)

Row | Substance | Average fold change [1, 3] | Average fold change, intensities as fold of C-CSNAP (A1) [2] | Average fold change [2] | other results
1 | DFFNDFEELFEDDEIQ [Position E19, C-CSNAP, Asp to Glu substitution D49,52,55E] | 1.0909 fold of C-CSNAP (A1) | 0.6448 fold of C-CSNAP (A1) |  | 
2 | EFFNEFEELFEDDEIQ [D42,46,49,52,55E] | 0.9893 fold of C-CSNAP (A1) |  | 0.5210 fold | 
3 | EFFNEFEELFEEDDIQ [D42,46,49,52,53E] | 1.2332 fold of C-CSNAP (A1) |  | 0.6954 fold | 
4 | DFFNEFEDLFDDDDIQ [D 4, C-CSNAP, Asp to Glu substitution D46E] | 1.0457 fold of C-CSNAP (A1) | 1.0255 fold of C-CSNAP (A1) |  | 
5 | EFFNDFEELFEDDEIQ [D42,49,52,55E] | 0.9030 fold of C-CSNAP (A1) |  | 0.7529 fold | 
6 | DFFNDFEELFEDDDIQ [Position D21, C-CSNAP, Asp to Glu substitution D49,52E] | 1.3626 fold of C-CSNAP (A1) | 0.6335 fold of C-CSNAP (A1) |  | 
7 | GAGPYVDLDEAGGSTGLLMDLAANEKAVHADFFNDFEDLFDDDDIQ [B 7, CSNAP residues 12-57] |  | 1.1696 fold of C-CSNAP (A1) |  | Average fold change [1, 4]: 1.0720 fold
8 | DFFNDFEDAFDDDDIQ [C 4, C-CSNAP, Ala substitution L50A] |  | 0.5335 fold of C-CSNAP (A1) |  | Average fold change [1, 4]: 0.8879 fold
9 | DFFNEFEELFEEEDIQ [D46,49,52,53,54E] | 1.3745 fold of C-CSNAP (A1) |  | 0.5724 fold | 
10 | EFFNEFEELFDEEEIQ [D42,46,49,53,54,55E] | 1.0322 fold of C-CSNAP (A1) |  | 0.3621 fold | 
11 | DFFNDFEDLFEDEDIQ [E 2, C-CSNAP, Asp to Glu substitution D52,54E] | 0.9955 fold of C-CSNAP (A1) | 0.8694 fold of C-CSNAP (A1) |  | 
12 | DFFN-Aib-FEDLF-Aib-DDDI-Aib [Position H17, C-CSNAP with Aib incorporation (46,52,57)] |  | 0.3449 fold of C-CSNAP (A1) |  | Average fold change, intensities as fold of C-CSNAP (A1) [1, 3]: 0.7091 fold; intensities as fold of C-CSNAP (A1), Experiment #1 left [2]: 0.3158 fold of C-CSNAP (A1); intensities as fold of C-CSNAP (A1), Experiment #1 right [2]: 0.2689 fold of C-CSNAP (A1); intensities as fold of C-CSNAP (A1), Experiment #2 left [2]: 0.1472 fold of C-CSNAP (A1); intensities as fold of C-CSNAP (A1), Experiment #2 right [2]: 0.2740 fold of C-CSNAP (A1); intensities as fold of C-CSNAP (A1), Experiment #3 left [2]: 0.2292 fold of C-CSNAP (A1); intensities as fold of C-CSNAP (A1), Experiment #3 right [2]: 0.8343 fold of C-CSNAP (A1)
13 | DFFNDFEELFEDEDIQ [Position E18, C-CSNAP, Asp to Glu substitution D49,52,54E] | 0.9681 fold of C-CSNAP (A1) | 0.6310 fold of C-CSNAP (A1) |  | 
14 | DFFNDFEELFDDEDIQ [Position D23, C-CSNAP, Asp to Glu substitution D49,54E] | 1.0923 fold of C-CSNAP (A1) | 0.5825 fold of C-CSNAP (A1) |  | 
15 | EFFNEFEELFEEEDIQ [D42,46,49,52,53,55E] | 1.2784 fold of C-CSNAP (A1) |  | 0.4075 fold | 
16 | GLLMDLAANEKAVHADFFNDFEDLFDDDDIQ [Position A16, CSNAP residues 27-57] |  | 1.0167 fold of C-CSNAP (A1) |  | Average fold change [1, 4]: 1.2168 fold
17 | DAFNDFEDLFDDDDIQ [Position B21, C-CSNAP, Ala substitution F43A] |  | 0.8509 fold of C-CSNAP (A1) |  | Average fold change [1, 4]: 1.1048 fold
18 | DFFNEFEELFDDEDIQ [Position E15, C-CSNAP, Asp to Glu substitution D46,49,54E] | 0.8747 fold of C-CSNAP (A1) | 0.5680 fold of C-CSNAP (A1) |  | 
19 | DFFNDFEDLFEEEEIQ [D52,53,54,55E] | 1.3020 fold of C-CSNAP (A1) |  | 0.7255 fold | 
20 | DFFNDFEDLFDD[Aib]DIQ[Aib] [Position H18, C-CSNAP with Aib incorporation (54,58)] |  | 0.2987 fold of C-CSNAP (A1) |  | Average fold change, intensities as fold of C-CSNAP (A1) [1, 3]: 1.0167 fold; intensities as fold of C-CSNAP (A1), Experiment #1 left [2]: 0.3071 fold of C-CSNAP (A1); intensities as fold of C-CSNAP (A1), Experiment #1 right [2]: 0.2334 fold of C-CSNAP (A1); intensities as fold of C-CSNAP (A1), Experiment #2 left [2]: 0.1973 fold of C-CSNAP (A1); intensities as fold of C-CSNAP (A1), Experiment #2 right [2]: 0.2444 fold of C-CSNAP (A1); intensities as fold of C-CSNAP (A1), Experiment #3 left [2]: 0.2003 fold of C-CSNAP (A1); intensities as fold of C-CSNAP (A1), Experiment #3 right [2]: 0.6096 fold of C-CSNAP (A1)
21 | DFFNEFEDLFDEDDIQ [Position D18, C-CSNAP, Asp to Glu substitution D46,53E] | 1.0532 fold of C-CSNAP (A1) | 0.5559 fold of C-CSNAP (A1) |  | 
22 | DFFNDFEELFEEEEIQ [D49,52,53,54,55E] | 1.1796 fold of C-CSNAP (A1) |  | 0.6658 fold | 

From article PMC10355216, “The C-terminal tail of CSNAP attenuates the CSN complex” (Life Science Alliance, 2023)
